# Read-outs that look alike come from different tables or passages of the source.
# How the values were obtained:
# [1] = system: isolated rat liver mitochondria; assay: Mitochondrial oxygen consumption (glutamate/malate or succinate driven, state 4 and state 3); assay type: biochemical; settings: DMSO treated samples set as 1; as to State 3 respiration driven by succinate at 10XCmax: key: 0 indicates that the drug had no effects (negative); as to State 3 respiration driven by succinate at 1XCmax: key: 0 indicates that the drug had no effects (negative)
# In short: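 Oxygen uptake on glutamate/malate or on succinate defined state 4; ADP added 3 min later gave state 3. Mitochondria isolated from rat liver by differential centrifugation, adjusted to 1 mg/ml and pretreated 5 min with inhibitor (0.1% DMSO final). Values relative to DMSO control, set to 1.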
# [2] = system: isolated rat liver mitochondria; assay: Mitochondrial inner membrane potential (MMP), Rhodamine 123; assay type: biochemical; settings: difference in signal between KI and DMSO treated samples at the end of experiments
# Source text: Fig. 3 KI effects on mitochondrial inner membrane potential (MMP). […] In a, c, data are means and standard derivations from three separate experiments. *p < 0.05 as compared to DMSO-treated samples at the end of experiments. In b, data are means of two independent experiments
# [3] = system: isolated rat liver mitochondria; assay: Mitochondrial ROS production (CM-H2DCFDA); settings: DMSO treated samples set as 1
# RCC I = RCC I activity in submitochondrial particles; assay type: biochemical, rat; parameters: key to RCC I at 10XCmax / RCC I at 100XCmax / RCC I at 50XCmax / RCC I at 30XCmax / RCC I at 20XCmax: activity relative to DMSO-treated controls (control set as 1 = 100%); settings: 10XCmax; relative to DMSO treated samples
# In short: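 Kinase inhibitors were preincubated 15 min with submitochondrial particles (1 mg/ml) before complex activities were measured. RCC I was the rotenone-sensitive portion (activity without minus with rotenone). RCC I/V was read at 340 nm and RCC II at 600 nm every 1 min for 6 min. RCC III and IV were read at 550 nm every 10 s for 2 min. Activities are normalized to DMSO controls set as 1.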
# [4] = therapeutic maximal blood concentration, ref product labeling, cited from earlier work
# RCC III = RCC III activity in submitochondrial particles; assay type: biochemical, rat; parameters: key to RCC III at 100XCmax: activity relative to DMSO-treated controls (control set as 1 = 100%); settings: 100XCmax; relative to DMSO treated samples
# In short: (§1)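 Absorbance kinetics: A340 (RCC I, V) and A600 (RCC II) read each minute over 6 min, A550 (RCC III, IV) every 10 s over 2 min; RCC I taken as […]. Particles (1 mg/ml) pretreated 15 min with compound; DMSO-treated activity = 1.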
# RCC V = RCC V activity in submitochondrial particles; assay type: biochemical, rat; settings: relative to DMSO treated samples; as to RCC V at 5XCmax: key: 0 indicates that the drug had no effects (negative)
# In short: as §1
# RCC II = biological target: T1, RCC II (Rattus norvegicus, UniProt P21913+Q641Z9+Q6PCT8+Q920L2); assay: RCC II activity in submitochondrial particles; assay type: biochemical; parameters: key: activity relative to DMSO-treated controls (control set as 1 = 100%); settings: relative to DMSO treated samples
# T1 construct: Submitochondrial particles were prepared by subjecting the intact mitochondria to three successive freeze–thaw cycles; from tissue; host or cells: rat liver mitochondria, used as submitochondrial particles
# T1 sequence (Q920L2 35-656): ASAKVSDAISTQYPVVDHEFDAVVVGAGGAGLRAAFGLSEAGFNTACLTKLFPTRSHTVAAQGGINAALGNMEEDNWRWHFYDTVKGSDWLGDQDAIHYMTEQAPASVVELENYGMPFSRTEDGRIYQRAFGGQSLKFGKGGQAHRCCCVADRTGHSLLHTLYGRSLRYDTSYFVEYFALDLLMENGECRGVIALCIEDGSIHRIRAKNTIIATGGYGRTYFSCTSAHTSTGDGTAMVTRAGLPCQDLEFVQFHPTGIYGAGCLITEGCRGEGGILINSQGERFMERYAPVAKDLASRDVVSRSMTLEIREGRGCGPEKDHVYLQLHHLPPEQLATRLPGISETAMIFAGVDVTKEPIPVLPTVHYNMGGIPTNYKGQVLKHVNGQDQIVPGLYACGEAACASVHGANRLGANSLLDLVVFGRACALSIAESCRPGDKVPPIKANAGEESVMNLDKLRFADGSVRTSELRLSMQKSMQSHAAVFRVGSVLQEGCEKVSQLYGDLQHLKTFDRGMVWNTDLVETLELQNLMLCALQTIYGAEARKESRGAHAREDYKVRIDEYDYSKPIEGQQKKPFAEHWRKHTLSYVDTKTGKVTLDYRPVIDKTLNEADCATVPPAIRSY
# T1 sequence (P21913 31-282): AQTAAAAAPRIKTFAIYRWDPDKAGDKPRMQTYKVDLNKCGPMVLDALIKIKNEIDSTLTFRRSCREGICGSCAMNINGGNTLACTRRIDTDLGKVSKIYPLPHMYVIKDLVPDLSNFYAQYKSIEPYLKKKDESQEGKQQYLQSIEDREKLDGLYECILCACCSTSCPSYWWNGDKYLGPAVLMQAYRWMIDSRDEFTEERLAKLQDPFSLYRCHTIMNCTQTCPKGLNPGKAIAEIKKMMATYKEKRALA
# T1 sequence (Q641Z9 1-169): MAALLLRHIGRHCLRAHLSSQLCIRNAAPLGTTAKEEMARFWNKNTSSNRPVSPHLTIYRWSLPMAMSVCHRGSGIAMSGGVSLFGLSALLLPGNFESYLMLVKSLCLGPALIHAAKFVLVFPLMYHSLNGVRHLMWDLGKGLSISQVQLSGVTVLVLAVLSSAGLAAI
# T1 sequence (Q6PCT8 57-159): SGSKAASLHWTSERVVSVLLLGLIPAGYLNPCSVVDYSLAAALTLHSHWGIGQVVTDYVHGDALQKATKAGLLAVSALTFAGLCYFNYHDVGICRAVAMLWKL
# In short: as §1
# [5] = system: isolated rat liver mitochondria; settings: positive control alamethicin treated samples
smiles,measurement,setting,value
N#CC[C@H](C1CCCC1)n1cc(-c2ncnc3[nH]ccc23)cn1 [ruxolitinib phosphate],State 3 respiration driven by glutamate/malate at 1XCmax,[1]; 1XCmax,0
same,State 3 respiration driven by succinate at 1XCmax,[1]; 1XCmax,0
same,State 4 respiration driven by glutamate/malate at 1XCmax,[1]; 1XCmax,0
same,State 4 respiration driven by succinate at 1XCmax,[1]; 1XCmax,0
same,State 3 respiration driven by glutamate/malate at 2.5XCmax,[1]; 2.5XCmax,0
same,State 3 respiration driven by succinate at 2.5XCmax,[1]; 2.5XCmax,0
same,State 4 respiration driven by glutamate/malate at 2.5XCmax,[1]; 2.5XCmax,0
same,State 4 respiration driven by succinate at 2.5XCmax,[1]; 2.5XCmax,0
same,State 3 respiration driven by glutamate/malate at 5XCmax,[1]; 5XCmax,0
same,State 3 respiration driven by succinate at 5XCmax,[1]; 5XCmax,0
same,State 4 respiration driven by glutamate/malate at 5XCmax,[1]; 5XCmax,0
same,State 4 respiration driven by succinate at 5XCmax,[1]; 5XCmax,0
same,State 3 respiration driven by glutamate/malate at 10XCmax,[1]; 10XCmax,0
same,State 3 respiration driven by succinate at 10XCmax,[1]; 10XCmax,0
same,State 4 respiration driven by glutamate/malate at 10XCmax,[1]; 10XCmax,0
same,State 4 respiration driven by succinate at 10XCmax,[1]; 10XCmax,0
same,State 3 respiration driven by glutamate/malate at 20XCmax,[1]; 20XCmax,0.62±0.05
same,State 3 respiration driven by succinate at 20XCmax,[1]; 20XCmax,0
same,State 4 respiration driven by glutamate/malate at 20XCmax,[1]; 20XCmax,0
same,State 4 respiration driven by succinate at 20XCmax,[1]; 20XCmax,0
same,State 3 respiration driven by glutamate/malate at 30XCmax,[1]; 30XCmax,0.54±0.02
same,State 3 respiration driven by succinate at 30XCmax,[1]; 30XCmax,0
same,State 4 respiration driven by glutamate/malate at 30XCmax,[1]; 30XCmax,0
same,State 4 respiration driven by succinate at 30XCmax,[1]; 30XCmax,0
same,State 3 respiration driven by glutamate/malate at 50XCmax,[1]; 50XCmax,0.49±0.06
same,State 3 respiration driven by succinate at 50XCmax,[1]; 50XCmax,0
same,State 4 respiration driven by glutamate/malate at 50XCmax,[1]; 50XCmax,0
same,State 4 respiration driven by succinate at 50XCmax,[1]; 50XCmax,0
same,State 3 respiration driven by glutamate/malate at 100XCmax,[1]; 100XCmax,0.28±0.06
same,State 3 respiration driven by succinate at 100XCmax,[1]; 100XCmax,0
same,State 4 respiration driven by glutamate/malate at 100XCmax,[1]; 100XCmax,0.71±0.08
same,State 4 respiration driven by succinate at 100XCmax,[1]; 100XCmax,0
same,MMP measured by Rhodamine 123 at 1XCmax,[2]; 1XCmax,0
same,MMP measured by Rhodamine 123 at 2.5XCmax,[2]; 2.5XCmax,0
same,MMP measured by Rhodamine 123 at 5XCmax,[2]; 5XCmax,0
same,MMP measured by Rhodamine 123 at 10XCmax,[2]; 10XCmax,0
same,MMP measured by Rhodamine 123 at 20XCmax,[2]; 20XCmax,0
same,MMP measured by Rhodamine 123 at 30XCmax,[2]; 30XCmax,0
same,MMP measured by Rhodamine 123 at 50XCmax,[2]; 50XCmax,0
same,MMP measured by Rhodamine 123 at 100XCmax,[2]; 100XCmax,0
same,ROS measured by CM-H2DCFDA at 1XCmax,[3]; 1XCmax,0
same,ROS measured by CM-H2DCFDA at 2.5XCmax,[3]; 2.5XCmax,0
same,ROS measured by CM-H2DCFDA at 5XCmax,[3]; 5XCmax,0
same,ROS measured by CM-H2DCFDA at 10XCmax,[3]; 10XCmax,0
same,ROS measured by CM-H2DCFDA at 20XCmax,[3]; 20XCmax,0
same,ROS measured by CM-H2DCFDA at 30XCmax,[3]; 30XCmax,0
same,ROS measured by CM-H2DCFDA at 50XCmax,[3]; 50XCmax,0
same,ROS measured by CM-H2DCFDA at 100XCmax,[3]; 100XCmax,0
same,RCC I at 10XCmax,RCC I,0
same,Cmax,[4]; read-out: Cmax at µM,1.2 µM
same,Cmax,[4],368 ng/mL
same,RCC III at 100XCmax,RCC III,0
same,RCC V at 5XCmax,RCC V; 5XCmax,0
same,RCC V at 50XCmax,RCC V; 50XCmax,0
same,RCC II at 1.0XCmax,RCC II; 1.0XCmax,0
same,RCC II at 2.5XCmax,RCC II; 2.5XCmax,0
same,RCC II at 5XCmax,RCC II; 5XCmax,0
same,RCC II at 10XCmax,RCC II; 10XCmax,0
same,RCC II at 20XCmax,RCC II; 20XCmax,0
same,RCC II at 30XCmax,RCC II; 30XCmax,0
same,RCC II at 50XCmax,RCC II; 50XCmax,0
same,RCC II at 100XCmax,RCC II; 100XCmax,0
same,Cytochrome c release 1XCmax,[5]; 1XCmax,0
same,Cytochrome c release 2.5XCmax,[5]; 2.5XCmax,0
same,Cytochrome c release 5XCmax,[5]; 5XCmax,0
same,Cytochrome c release 10XCmax,[5]; 10XCmax,0
same,Cytochrome c release 20XCmax,[5]; 20XCmax,0
same,Cytochrome c release 30XCmax,[5]; 30XCmax,0
same,Cytochrome c release 50XCmax,[5]; 50XCmax,13.84±2.24 percentage of the positive control group
same,Cytochrome c release 100XCmax,[5]; 100XCmax,8.09±1.58 percentage of the positive control group
